Test results as given in patent publication US7320996B2, “Indolinone protein kinase inhibitors and cyclooxygenase inhibitors for use in combination therapy for the treatment of cancer” (Sugen, Inc, priority 2001, dated 2008).
Values belong to the molecule of their own block, whether it stands above or below them.

Columns and labels:
[1] = biological target: EGFR (Homo sapiens, UniProt P00533); experiment: cell EGF assay; assay type: cell-based
Description: Several of the assays described herein are performed in an ELISA (Enzyme-Linked Immunosorbent […]) format (Voller, et al, 1980, “Enzyme-Linked Immunosorbent Assay,” Manual of Clinical Immunology, 2d ed., Rose and Friedman, Am. Soc. Of Microbiology, Washington, D.C., pp. 359-371). The general procedure is as follows: a compound of Formula (I) is introduced to cells expressing the test kinase, either naturally or recombinantly, for a selected period of time after which, if the test kinase is a receptor, a ligand known to activate the receptor is added. The cells are lysed and the lysate is transferred to the wells of an ELISA plate previously coated with a specific antibody recognizing the substrate of the enzymatic phosphorylation reaction. Non-substrate components of the cell lysate are washed away and the amount of phosphorylation on the substrate is detected with an antibody specifically recognizing phosphotyrosine compared with control cells that were not contacted with a test compound.
Specifically, the results shown indicate the concentration of a test compound needed to cause a 50% reduction of the activity of the target PTK. Bioassays which have been or can be used to evaluate compounds are described in detail below.

[2] = biological target: T1, EGFR (A431 cell lysate) (Homo sapiens, UniProt P00533); experiment: EGFR bioassay, ELISA; assay type: biochemical; details: read-out: bio EGF IC50
T1 construct: A431 cell lysate (SUGEN, Inc.); host or cells: A431
T1 sequence (P00533 25-1210): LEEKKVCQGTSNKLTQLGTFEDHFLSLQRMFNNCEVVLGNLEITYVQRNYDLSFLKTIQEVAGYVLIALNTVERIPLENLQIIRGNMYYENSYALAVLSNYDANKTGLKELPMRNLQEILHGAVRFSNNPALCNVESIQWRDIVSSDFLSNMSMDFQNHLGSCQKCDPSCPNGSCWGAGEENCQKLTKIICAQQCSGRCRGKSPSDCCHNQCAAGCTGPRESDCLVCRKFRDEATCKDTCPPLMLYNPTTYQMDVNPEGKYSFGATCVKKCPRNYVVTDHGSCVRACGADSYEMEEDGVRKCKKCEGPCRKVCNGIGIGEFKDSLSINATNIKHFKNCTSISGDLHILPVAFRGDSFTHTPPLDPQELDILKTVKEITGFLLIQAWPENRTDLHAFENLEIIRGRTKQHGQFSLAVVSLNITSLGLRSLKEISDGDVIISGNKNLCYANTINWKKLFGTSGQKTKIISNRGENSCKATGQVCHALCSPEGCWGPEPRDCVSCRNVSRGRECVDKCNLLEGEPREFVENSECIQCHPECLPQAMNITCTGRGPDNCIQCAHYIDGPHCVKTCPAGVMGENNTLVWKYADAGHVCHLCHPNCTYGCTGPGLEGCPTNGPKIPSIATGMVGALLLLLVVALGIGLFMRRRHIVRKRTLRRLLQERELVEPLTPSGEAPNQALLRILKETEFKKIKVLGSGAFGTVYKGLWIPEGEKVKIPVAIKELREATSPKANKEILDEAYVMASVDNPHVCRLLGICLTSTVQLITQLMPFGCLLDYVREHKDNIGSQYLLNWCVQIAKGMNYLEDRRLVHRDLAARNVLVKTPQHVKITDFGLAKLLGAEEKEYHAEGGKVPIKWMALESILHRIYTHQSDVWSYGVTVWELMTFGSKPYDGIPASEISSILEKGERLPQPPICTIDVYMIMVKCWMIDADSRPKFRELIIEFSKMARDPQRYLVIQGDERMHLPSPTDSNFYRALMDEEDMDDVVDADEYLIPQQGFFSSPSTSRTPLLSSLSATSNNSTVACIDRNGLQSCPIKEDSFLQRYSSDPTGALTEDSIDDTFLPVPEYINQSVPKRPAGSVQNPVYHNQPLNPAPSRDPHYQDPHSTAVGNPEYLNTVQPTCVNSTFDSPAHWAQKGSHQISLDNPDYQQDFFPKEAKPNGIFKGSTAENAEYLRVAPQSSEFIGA

[3] = biological target: T2, HER-2 kinase (EGFr/HER-2 chimera/3T3-C7 cell line) (Homo sapiens, UniProt P04626); experiment: Cellular HER-2 kinase assay, whole-cell ELISA; assay type: cell-based; details: read-out: Her2 Kinase IC50
T2 construct: fused on or other part: EGFR extracellular part, stimulated by EGF and captured by the anti-EGFR antibody SUMO1; P00533 (Epidermal growth factor receptor)
T2 sequence (P04626 720-987 limits assumed, change not shown): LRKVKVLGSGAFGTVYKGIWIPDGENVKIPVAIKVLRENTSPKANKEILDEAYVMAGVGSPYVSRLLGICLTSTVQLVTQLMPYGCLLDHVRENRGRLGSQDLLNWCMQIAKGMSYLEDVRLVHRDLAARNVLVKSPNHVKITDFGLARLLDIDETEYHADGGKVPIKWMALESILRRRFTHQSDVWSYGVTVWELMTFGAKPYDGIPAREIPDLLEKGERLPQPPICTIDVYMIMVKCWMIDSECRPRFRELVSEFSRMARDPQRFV

[4] = tested on: HT-29 human colon cancer cells; experiment: HT-29 Model; assay type: in vivo, nude mice; details: HT-29 assay A
[5] = tested on: HT-29 human colon cancer cells; experiment: HT-29 Model; assay type: in vivo, nude mice
Description: Mice were injected subcutaneously in the left paw (1×10^6 tumor cells suspended in 30% Matrigel) and tumor volume was evaluated using a phlethysmometer twice a week for 30-60 days. Implantation of human colon cancer cells (HT-29) into nude mice produces tumors that will reach 0.6-2 ml between 30-50 days. […] The data are expressed as the mean+/−SEM. Student's and Mann-Whitney tests were used to assess differences between means using the InStat software package.
The efficacy of both agents were determined by measuring tumor volume.

[6] = tested on: Lewis Lung tumors; experiment: Lewis Lung Model; assay type: in vivo, mice
[7] = biological target: T3, PDGFR-β (NIH 3T3 cell lysate) (Homo sapiens, UniProt P09619); experiment: PDGFR bioassay, ELISA; assay type: biochemical; details: read-out: bio PDGF IC50
T3 construct: host or cells: NIH 3T3
T3 sequence (P09619 33-1106): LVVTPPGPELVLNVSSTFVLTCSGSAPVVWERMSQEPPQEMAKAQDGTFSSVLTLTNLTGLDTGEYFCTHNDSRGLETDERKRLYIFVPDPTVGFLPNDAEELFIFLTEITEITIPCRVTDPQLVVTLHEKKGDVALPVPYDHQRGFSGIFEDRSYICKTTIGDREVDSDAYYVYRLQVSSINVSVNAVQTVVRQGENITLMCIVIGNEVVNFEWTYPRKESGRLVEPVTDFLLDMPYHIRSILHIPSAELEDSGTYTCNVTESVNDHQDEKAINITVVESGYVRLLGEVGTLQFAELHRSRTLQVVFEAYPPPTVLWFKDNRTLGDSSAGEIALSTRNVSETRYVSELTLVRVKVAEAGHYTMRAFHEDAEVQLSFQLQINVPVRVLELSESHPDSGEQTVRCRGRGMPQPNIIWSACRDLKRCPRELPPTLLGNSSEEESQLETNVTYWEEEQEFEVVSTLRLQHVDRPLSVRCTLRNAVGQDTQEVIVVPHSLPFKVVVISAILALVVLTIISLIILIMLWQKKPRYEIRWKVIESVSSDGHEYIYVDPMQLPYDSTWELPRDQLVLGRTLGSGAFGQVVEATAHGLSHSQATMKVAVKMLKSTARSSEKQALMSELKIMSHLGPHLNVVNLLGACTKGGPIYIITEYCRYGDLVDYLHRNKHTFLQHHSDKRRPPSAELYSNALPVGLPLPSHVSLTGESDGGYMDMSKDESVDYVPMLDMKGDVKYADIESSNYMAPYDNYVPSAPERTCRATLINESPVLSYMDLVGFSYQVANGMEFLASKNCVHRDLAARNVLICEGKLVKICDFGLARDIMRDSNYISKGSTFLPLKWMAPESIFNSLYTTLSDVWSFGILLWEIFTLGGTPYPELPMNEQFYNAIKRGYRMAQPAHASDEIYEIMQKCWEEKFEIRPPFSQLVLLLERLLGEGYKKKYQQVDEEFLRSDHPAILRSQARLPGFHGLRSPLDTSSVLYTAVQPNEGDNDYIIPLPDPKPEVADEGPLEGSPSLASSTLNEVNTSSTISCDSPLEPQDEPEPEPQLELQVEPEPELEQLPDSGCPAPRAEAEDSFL

[8] = biological target: T4, human cdk2/cyclin A (Homo sapiens, UniProt P24941); experiment: CDK2/cyclin A scintillation proximity assay (cdk2spa); assay type: biochemical; details: read-out: cdk2spa C50
T4 construct: host or cells: Sf9

[9] = biological target: T5, GST-Flk1 (Mus musculus, UniProt P35918); experiment: GST-FLK-1 bioassay (bio flkGST), ELISA; assay type: biochemical
T5 construct: GST-Flk1cd purified from sf9 recombinant baculovirus transformation (SUGEN, Inc.); host or cells: Sf9 (baculovirus)
T5 sequence (P35918 784-1345 limits assumed): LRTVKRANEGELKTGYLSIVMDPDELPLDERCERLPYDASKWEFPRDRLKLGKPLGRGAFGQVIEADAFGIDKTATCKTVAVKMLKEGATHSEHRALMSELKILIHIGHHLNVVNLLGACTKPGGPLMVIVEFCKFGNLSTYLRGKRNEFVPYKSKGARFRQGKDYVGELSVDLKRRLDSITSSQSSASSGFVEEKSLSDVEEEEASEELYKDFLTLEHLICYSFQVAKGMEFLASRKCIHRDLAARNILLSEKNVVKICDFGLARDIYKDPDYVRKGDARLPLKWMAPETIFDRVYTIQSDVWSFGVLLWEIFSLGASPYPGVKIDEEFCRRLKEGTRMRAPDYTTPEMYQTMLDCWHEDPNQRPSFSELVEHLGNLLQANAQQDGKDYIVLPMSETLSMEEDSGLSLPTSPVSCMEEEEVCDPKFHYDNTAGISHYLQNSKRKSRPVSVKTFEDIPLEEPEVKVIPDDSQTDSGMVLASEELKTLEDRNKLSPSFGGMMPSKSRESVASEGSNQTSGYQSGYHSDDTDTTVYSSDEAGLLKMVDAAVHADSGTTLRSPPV

Chain of EGFR (P00533 25-1210, species assumed): as the sequence (P00533 25-1210) above

melting point: 160 to 164 °C
SMILES: Cc1cc(C)c(/C=C2\C(=O)N(CN3CCN(C)CC3)c3ccccc32)[nH]1 [Example 205, (3Z)-3-[(3,5-dimethyl-1H-pyrrol-2-yl)-methylidene]-1-[1-(4-methylpiperazinyl)methyl]-dihydro-2H-indol-2-one]

IC50 [1]: > 100 µM | IC50 [7]: < 0.78 µM | IC50 [3]: > 100 µM
SMILES: CCN(CC)CCNC(=O)c1c(C)[nH]c(/C=C2\C(=O)Nc3cc(-c4cccnc4)ccc32)c1C [Example 63, 2,4-Dimethyl-5-(2-oxo-6-pyridin-3-yl-1,2-dihydroindol-3-ylidenemethyl)-1H-pyrrole-3-carboxylic Acid (2-diethylaminoethyl)amide]

IC50 [7]: > 100 µM | IC50 [8]: < 0.0005 µM | IC50 [3]: > 100 µM | IC50 [9]: > 20 µM
SMILES: CCOC(=O)CNC(=O)c1c[nH]c(/C=C2\C(=O)Nc3ccc(S(=O)(=O)NC)c(C)c32)c1C [Example 116, {[4-Methyl-5-(4-methyl-5-methylsulfamoyl-2-oxo-1,2-dihydro-indol-3-ylidenemethyl)-1H-pyrrole-3-carbonyl]-amino}-acetic Acid Ethyl Ester]

IC50 [7]: 7.48 µM | IC50 [8]: 0.006 µM | IC50 [3]: > 100 µM | IC50 [9]: 7.3 µM
SMILES: CNS(=O)(=O)c1ccc2c(c1)/C(=C/c1[nH]cc(C(=O)O)c1C)C(=O)N2 [Example 115, 4-Methyl-5-(5-methylsulfamoyl-2-oxo-1,2-dihydro-indol-3-ylidenemethyl)-1H-pyrrole-3-carboxylic Acid]

melting point: 129 to 132 °C
SMILES: Cc1cc(C)c(/C=C2\C(=O)N(CN3CCCC3)c3ccccc32)[nH]1 [Example 206, (3Z)-3-[(3,5-dimethyl-1H-pyrrol-2-yl)-methylidene]-1-(1-pyrrolidinylmethyl)-1,3-dihydro-2H-indol-2-one]

The next lines start with the molecule.

SMILES: Cc1[nH]c(/C=C2\C(=O)Nc3ccc(-c4ccccc4)cc32)c(C)c1C(=O)NCCCn1ccnc1 [Example 58, 2,4-Dimethyl-5-(2-oxo-5-phenyl-1,2-dihydroindol-3-ylidenemethyl)-1H-pyrrole-3-carboxylic Acid (3-imidazol-1-ylpropyl)amide]
IC50 [1]: > 100 µM | IC50 [2]: > 100 µM | IC50 [3]: > 100 µM

SMILES: COc1ccc2c(c1)c(CC(=O)O)c(C)n2C(=O)c1ccc(Cl)cc1 [indomethacin]
formation of lung metastasis [4]: ineffective | inhibition of tumor formation ([5]; 2 mg/kg/day in the drinking water, near the maximum tolerated dose): 77%

SMILES: CCN(CC)CCNC(=O)c1c(C)[nH]c(/C=C2\C(=O)Nc3cc(-c4cc(Cl)cc(Cl)c4)ccc32)c1C [Example 62, 5-[6-(3,5-Dichlorophenyl)-2-oxo-1,2-dihydroindol-3-ylidenemethyl]-2,4-dimethyl-1H-pyrrole-3-carboxylic Acid (2-diethylaminoethyl)amide]
IC50 [1]: > 100 µM | IC50 [2]: > 100 µM | IC50 [3]: > 100 µM

SMILES: Cc1ccc(-c2cc(C(F)(F)F)nn2-c2ccc(S(N)(=O)=O)cc2)cc1 [Celecoxib]
effect on lung metastasis ([6]; 160 ppm in the diet): did not affect | reduction of surface metastasis ([6]; 480-3200 ppm in the diet): more than 50% | size of the metastasic lesions in the lung ([6]; histopathological analysis): dose-dependently reduced | tumor Volume ([5]; 10 ppm in the diet from day 10, day 14): 0.124 mL | tumor Volume ([5]; 10 ppm in the diet from day 10, day 22): 0.25 mL | tumor Volume ([5]; 10 ppm in the diet from day 10, day 28): 0.36 mL | tumor Volume ([5]; 10 ppm in the diet from day 10, day 35): 0.57 mL | tumor Volume ([5]; 10 ppm in the diet from day 10, day 42): 0.89 mL | tumor Volume ([5]; 10 ppm in the diet from day 10, day 50): 1.49 mL | tumor Volume ([5]; 40 ppm in the diet from day 10, day 14): 0.125 mL | tumor Volume ([5]; 40 ppm in the diet from day 10, day 22): 0.19 mL | tumor Volume ([5]; 40 ppm in the diet from day 10, day 28): 0.27 mL | tumor Volume ([5]; 40 ppm in the diet from day 10, day 35): 0.4 mL | tumor Volume ([5]; 40 ppm in the diet from day 10, day 42): 0.68 mL | tumor Volume ([5]; 40 ppm in the diet from day 10, day 50): 1.04 mL | tumor Volume ([5]; 160 ppm in the diet from day 10, day 14): 0.120 mL | tumor Volume ([5]; 160 ppm in the diet from day 10, day 22): 0.14 mL | tumor Volume ([5]; 160 ppm in the diet from day 10, day 28): 0.21 mL | tumor Volume ([5]; 160 ppm in the diet from day 10, day 35): 0.3 mL | tumor Volume ([5]; 160 ppm in the diet from day 10, day 42): 0.49 mL | tumor Volume ([5]; 160 ppm in the diet from day 10, day 50): 0.8 mL | effect in combination with a cytotoxic agent (cyclophosphamide) ([5]; celecoxib in the diet, cytoxin i.p. 50 mg/kg on days 5, 7 and 9): positive benefit

SMILES: NS(=O)(=O)c1ccc(-n2nc(C(F)(F)F)cc2-c2ccc(Cl)cc2)cc1 [SC-58236, 4-[5-(4-chorophenyl)-3-(trifluoromethyl)-1H-pyrazole-1-yl]benzenesulfonamide]
formation of lung metastasis [4]: completely inhibited | reduction of tumor volume ([5]; HT-29 assay A): 89%
